For one experiment, the target named is T1, rat TRPV3 (Rattus norvegicus, UniProt Q4QYD9).
T1 construct: expressed in transfected cells; host or cells: CHO, T-REx tetracycline-inducible system (Invitrogen), co-transfected with aequorin
T1 sequence (Q4QYD9 1-791): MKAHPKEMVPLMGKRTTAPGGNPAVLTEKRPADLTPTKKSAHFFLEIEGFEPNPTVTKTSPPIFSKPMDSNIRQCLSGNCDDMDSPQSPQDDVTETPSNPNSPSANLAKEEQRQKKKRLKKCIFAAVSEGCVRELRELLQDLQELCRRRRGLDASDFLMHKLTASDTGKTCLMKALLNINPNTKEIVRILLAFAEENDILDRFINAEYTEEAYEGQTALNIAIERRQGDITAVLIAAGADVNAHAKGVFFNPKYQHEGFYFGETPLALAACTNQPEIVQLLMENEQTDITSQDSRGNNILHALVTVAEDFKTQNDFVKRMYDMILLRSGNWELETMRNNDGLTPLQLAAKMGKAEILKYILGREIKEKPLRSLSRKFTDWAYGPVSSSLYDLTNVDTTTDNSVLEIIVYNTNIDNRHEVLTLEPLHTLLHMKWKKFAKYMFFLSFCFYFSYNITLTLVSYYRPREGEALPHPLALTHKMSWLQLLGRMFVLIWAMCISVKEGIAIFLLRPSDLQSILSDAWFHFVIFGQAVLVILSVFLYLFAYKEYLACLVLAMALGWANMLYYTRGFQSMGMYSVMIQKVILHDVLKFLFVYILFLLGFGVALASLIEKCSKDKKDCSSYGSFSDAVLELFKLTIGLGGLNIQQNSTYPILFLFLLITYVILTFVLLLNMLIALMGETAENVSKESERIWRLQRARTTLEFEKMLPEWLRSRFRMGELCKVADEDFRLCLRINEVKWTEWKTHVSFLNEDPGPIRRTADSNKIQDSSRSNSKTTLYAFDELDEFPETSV
Nature of the experiment: Luminescence (aequorin) readout of intracellular calcium, CHO cells expressing rat TRPV3, 2-APB activation. The class given is cell-based. Conditions: 200 uM 2-APB, read-out: rTRPV3 IC50. An excerpt: Stable Chinese hamster ovary (CHO) cell lines expressing rat TRPA1, rat TRPM8, rat TRPV3, and human TRPV4 were generated using the tetracycline-inducible T-REx™ expression system from Invitrogen (Carlsbad, CA) and a stable CHO cell line expressing rat TRPV1 was generated using a constitutive expression system (Klionsky et al. [2007]). To enable a luminescence readout based on intracellular increase in calcium (Le Poul et al. [2002]), each cell line was also co-transfected with pcDNA3.1 plasmid containing jelly fish aequorin cDNA. Twenty-four hours before the assay, cells were seeded in 96-well plates and all TRP channel expression, except for TRPV1, was induced with 0.5 ug/mL tetracycline. […] Luminescence was measured by a CCD camera-based FLASH-luminometer built by Amgen, Inc. The following agonists were used to activate TRP channels: 0.5 uM capsaicin for TRPV1, 80 uM allyl isothiocyanate (AITC) for TRPA1, 1 uM icilin or cold buffer (12 °C) for TRPM8, 200 uM aminoethoxydiphenyl borate (2-APB) for TRPV3, and 1 uM 4α-phorbol 12,13-didecanoate (4α-PDD) for TRPV4. Antagonist IC50 values were calculated using GraphPad Prism 4.01 (GraphPad Software Inc, San Diego, CA).

Another experiment relates to SNL rats. In words: SNL-induced tactile allodynia (von Frey, up-down method). In kind it is in vivo, rat. The note with it: 100 mg/kg p.o.; p > 0.05 vs vehicle (4.4 ± 1.2 g). On the procedure: SNL surgery was performed using aseptic surgical techniques and a stereomicroscope (Kim and Chung [1992]). Spinal nerve injury was caused by ligating the left L5 and L6 spinal nerves, with special care to avoid damage to the L4 spinal nerve or surrounding area. More specifically, under gaseous anesthesia with a mixture of O2 and isoflurane (3 % for induction and 2 % for maintenance), skin was excised and the longissimus lumborum muscle, part of articular processes (L4-S1), and the fascia above L6 spinal nerve were carefully removed. […]
Behavioral testing Two weeks post surgery, mechanical sensitivity was measured by determining the median 50 % foot withdrawal threshold for von Frey filaments using the up-down method (Chaplan et al. [1994]). […] To avoid possible reflex responses, only abrupt withdrawal of the foot accompanied by pain indicative behaviors (namely paw flinching, shaking, or licking for more than 2 s) was recorded as a response. […]
In vivo IC50 and IC90 estimates using WDS model data were determined by fitting a sigmoidal dose-response curve to individual animal number of WDS versus resulting plasma concentration. Behavioral and electrophysiological data are expressed as mean ± standard error of the mean (S.E.M.). Results were analyzed using one-way analysis of variance (ANOVA) with Dunnett’s multiple-comparisons post-hoc test for significance relative to vehicle. […]

SMILES strings stand for the structures. Some results are limits rather than exact numbers.

Take `C[C@H](NC(=O)N1CCc2cccnc2[C@H]1c1ccc(C(F)(F)F)cc1)C(F)(F)F` [AMG2850, (R)-8-(4-(trifluoromethyl)phenyl)-N-((S)-1,1,1-trifluoropropan-2-yl)-5,6-dihydro-1,7-naphthyridine-7(8H)-carboxamide]: the IC50 on rat TRPV3 is more than 25 µM. Moreover, in the experiment with SNL rats, the “tactile threshold (von Frey), SNL model” value amounted to 5.8 ± 1.3 g.

What is called IC50 is the concentration that gives 50% inhibition.

The record behind these values is PMC4359714 (Naunyn-Schmiedeberg's Archives of Pharmacology, 2015).
